In ChEMBL document CHEMBL1201862, “PubChem BioAssay data set” (2004):
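Interpolation was linear, between the two tested concentrations surrounding the appropriate level; five concentrations were tested over 48 hours in 96-well plates. At the GI50, growth is halved.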 The source made the active and inactive calls. Rule as the data show it: active = GI50 up to about 1.1 µM and inactive = higher.

What was measured:
Experiment in all cases: NCI tumour cell line growth inhibition, 48 h
[1] = tested on: A549
[2] = tested on: NCI-H226
[3] = tested on: K562
[4] = tested on: HCT-116
[5] = tested on: RPMI-8226
[6] = tested on: NCI-H460
[7] = tested on: M14
[8] = tested on: HT-29
[9] = tested on: HCC 2998
[10] = tested on: SF-539
[11] = tested on: OVCAR-4
[12] = tested on: OVCAR-3
[13] = tested on: A498
[14] = tested on: CAKI-1
[15] = tested on: HCT-15
[16] = tested on: ACHN
[17] = tested on: SF-268
[18] = tested on: HOP-62
[19] = tested on: KM12
[20] = tested on: SN12C
[21] = tested on: NCI/ADR-RES
[22] = tested on: Malme-3M
[23] = tested on: OVCAR-5
[24] = tested on: DU-145
[25] = tested on: PC-3
[26] = tested on: 786-0
[27] = tested on: MCF7
[28] = tested on: RXF 393
[29] = tested on: IGROV-1
[30] = tested on: Hs-578T
[31] = tested on: EKVX
[32] = tested on: SK-MEL-5
[33] = tested on: MDA-MB-231
[34] = tested on: OVCAR-8
[35] = tested on: UACC-257
[36] = tested on: UO-31
[37] = tested on: COLO 205
[38] = tested on: MOLT-4
[39] = tested on: LOX IMVI
[40] = tested on: U-251
[41] = tested on: SR
[42] = tested on: SW-620
[43] = tested on: BT-549
[44] = tested on: HL-60
[45] = tested on: SNB-19
[46] = tested on: SK-MEL-28
[47] = tested on: UACC-62
[48] = tested on: TK-10
[49] = tested on: SK-OV-3
[50] = tested on: SF-295
[51] = tested on: CCRF-CEM
[52] = tested on: NCI-H23
[53] = tested on: MDA-MB-435
[54] = tested on: NCI-H522
[55] = tested on: HOP-92
[56] = tested on: T47D
[57] = tested on: SK-MEL-2
[58] = tested on: SNB-75

## O=C1/C(=C/C=C/c2ccccc2)CCC1CNc1ccc(Br)cc1 (stereo unspecified)
[1]
  GI50: 53 µM (inactive)
[2]
  GI50: > 100 µM (inactive)
[3]
  GI50: 27.1 µM (inactive)
[4]
  GI50: 37.9 µM (inactive)
[5]
  GI50: 5.47 µM (inactive)
[6]
  GI50: 72.1 µM (inactive)
[7]
  GI50: 77.6 µM (inactive)
[8]
  GI50: > 100 µM (inactive)
[9]
  GI50: 78 µM (inactive)
[10]
  GI50: > 100 µM (inactive)
[11]
  GI50: 57.7 µM (inactive)
[12]
  GI50: > 100 µM (inactive)
[13]
  GI50: 68.9 µM (inactive)
[14]
  GI50: > 100 µM (inactive)
[15]
  GI50: 4.86 µM
[16]
  GI50: 6.53 µM (inactive)
[17]
  GI50: > 100 µM (inactive)
[18]
  GI50: > 100 µM (inactive)
[19]
  GI50: 15.2 µM (inactive)
[20]
  GI50: 4.51 µM (inactive)
[21]
  GI50: > 10 µM (inactive)
[22]
  GI50: 0.106 µM (active)
[23]
  GI50: > 100 µM (inactive)
[24]
  GI50: 40.2 µM (inactive)
[25]
  GI50: 79.3 µM (inactive)
[26]
  GI50: 82.2 µM (inactive)
[27]
  GI50: 21 µM (inactive)
[28]
  GI50: > 100 µM (inactive)
[29]
  GI50: 46.8 µM (inactive)
[30]
  GI50: > 100 µM (inactive)
[31]
  GI50: > 100 µM (inactive)
[32]
  GI50: 47.5 µM (inactive)
[33]
  GI50: 23.1 µM (inactive)
[34]
  GI50: > 100 µM (inactive)
[35]
  GI50: > 100 µM (inactive)
[36]
  GI50: 48.4 µM (inactive)
[37]
  GI50: 20.8 µM (inactive)
[38]
  GI50: 24.3 µM (inactive)
[39]
  GI50: > 100 µM (inactive)
[40]
  GI50: > 100 µM (inactive)
[41]
  GI50: 23.3 µM (inactive)
[42]
  GI50: 88.7 µM (inactive)
[43]
  GI50: > 100 µM (inactive)
[44]
  GI50: 17.1 µM (inactive)
[45]
  GI50: > 100 µM (inactive)
[46]
  GI50: > 100 µM (inactive)
[47]
  GI50: 6.92 µM (inactive)
[48]
  GI50: 43.3 µM (inactive)
[49]
  GI50: 88.1 µM (inactive)
[50]
  GI50: > 100 µM (inactive)
[51]
  GI50: 22.7 µM (inactive)
[52]
  GI50: > 100 µM (inactive)
[53]
  GI50: 44.5 µM (inactive)
[54]
  GI50: 21.3 µM (inactive)
[55]
  GI50: > 100 µM (inactive)
[56]
  GI50: 34.1 µM (inactive)

## CC(=O)N1c2ccccc2C23CCN(C)CC4C(C)OCC(C4CC2=O)C13 (stereo unspecified)
[1]
  GI50: > 100 µM (inactive)
[2]
  GI50: > 100 µM (inactive)
[3]
  GI50: > 100 µM (inactive)
[4]
  GI50: > 100 µM (inactive)
[6]
  GI50: > 100 µM (inactive)
[7]
  GI50: > 100 µM (inactive)
[8]
  GI50: > 100 µM (inactive)
[9]
  GI50: > 100 µM (inactive)
[10]
  GI50: > 100 µM (inactive)
[11]
  GI50: > 100 µM (inactive)
[13]
  GI50: > 100 µM (inactive)
[14]
  GI50: > 100 µM (inactive)
[15]
  GI50: > 100 µM
[16]
  GI50: > 100 µM (inactive)
[17]
  GI50: > 100 µM (inactive)
[19]
  GI50: > 100 µM (inactive)
[20]
  GI50: > 100 µM (inactive)
[21]
  GI50: > 100 µM (inactive)
[22]
  GI50: > 100 µM (inactive)
[23]
  GI50: > 100 µM (inactive)
[24]
  GI50: > 100 µM (inactive)
[25]
  GI50: > 100 µM (inactive)
[26]
  GI50: > 100 µM (inactive)
[27]
  GI50: > 100 µM (inactive)
[28]
  GI50: > 100 µM (inactive)
[29]
  GI50: > 100 µM (inactive)
[30]
  GI50: > 100 µM (inactive)
[31]
  GI50: > 100 µM (inactive)
[32]
  GI50: > 100 µM (inactive)
[33]
  GI50: > 100 µM (inactive)
[57]
  GI50: > 100 µM (inactive)
[34]
  GI50: > 100 µM (inactive)
[35]
  GI50: > 100 µM (inactive)
[36]
  GI50: > 100 µM (inactive)
[37]
  GI50: > 100 µM (inactive)
[38]
  GI50: > 100 µM (inactive)
[39]
  GI50: > 100 µM (inactive)
[40]
  GI50: > 100 µM (inactive)
[41]
  GI50: > 100 µM (inactive)
[42]
  GI50: > 100 µM (inactive)
[43]
  GI50: > 100 µM (inactive)
[44]
  GI50: > 100 µM (inactive)
[45]
  GI50: > 100 µM (inactive)
[46]
  GI50: > 100 µM (inactive)
[47]
  GI50: > 100 µM (inactive)
[58]
  GI50: > 100 µM (inactive)
[48]
  GI50: > 100 µM (inactive)
[49]
  GI50: > 100 µM (inactive)
[50]
  GI50: > 100 µM (inactive)
[51]
  GI50: > 100 µM (inactive)
[52]
  GI50: > 100 µM (inactive)
[53]
  GI50: > 100 µM (inactive)
[54]
  GI50: > 100 µM (inactive)
[55]
  GI50: > 100 µM (inactive)
[56]
  GI50: > 100 µM (inactive)

## CC12CCc3ccccc3C1=Nc1ccccc12 (stereo unspecified)
[1]
  GI50: 73.5 µM (inactive)
[2]
  GI50: 21.8 µM (inactive)
[3]
  GI50: 31 µM (inactive)
[4]
  GI50: 32.7 µM (inactive)
[6]
  GI50: 37.3 µM (inactive)
[7]
  GI50: 32.3 µM (inactive)
[8]
  GI50: 29.9 µM (inactive)
[10]
  GI50: 14.2 µM (inactive)
[11]
  GI50: 41.3 µM (inactive)
[12]
  GI50: 15.3 µM (inactive)
[14]
  GI50: 17.7 µM (inactive)
[15]
  GI50: 38.1 µM
[16]
  GI50: 64.7 µM (inactive)
[17]
  GI50: 98.2 µM (inactive)
[18]
  GI50: 86.1 µM (inactive)
[19]
  GI50: 24.1 µM (inactive)
[20]
  GI50: 0.164 µM (active)
[21]
  GI50: 22.4 µM (inactive)
[22]
  GI50: 28.1 µM (inactive)
[23]
  GI50: > 100 µM (inactive)
[24]
  GI50: > 100 µM (inactive)
[25]
  GI50: 14.3 µM (inactive)
[26]
  GI50: 49.2 µM (inactive)
[27]
  GI50: 48.6 µM (inactive)
[28]
  GI50: 74.3 µM (inactive)
[29]
  GI50: 71.1 µM (inactive)
[30]
  GI50: 2.14 µM (inactive)
[31]
  GI50: 25.1 µM (inactive)
[32]
  GI50: 12.6 µM (inactive)
[33]
  GI50: 24.2 µM (inactive)
[57]
  GI50: 47.9 µM (inactive)
[34]
  GI50: 42.5 µM (inactive)
[35]
  GI50: 49.8 µM (inactive)
[36]
  GI50: 24.3 µM (inactive)
[37]
  GI50: 42.8 µM (inactive)
[38]
  GI50: 30.4 µM (inactive)
[39]
  GI50: 40.8 µM (inactive)
[40]
  GI50: 44.6 µM (inactive)
[41]
  GI50: 45.3 µM (inactive)
[42]
  GI50: 45.9 µM (inactive)
[43]
  GI50: 17.8 µM (inactive)
[44]
  GI50: 28.8 µM (inactive)
[45]
  GI50: > 100 µM (inactive)
[46]
  GI50: 90.2 µM (inactive)
[47]
  GI50: 29.4 µM (inactive)
[58]
  GI50: > 100 µM (inactive)
[48]
  GI50: 53.8 µM (inactive)
[49]
  GI50: > 100 µM (inactive)
[50]
  GI50: 44.4 µM (inactive)
[51]
  GI50: 25.1 µM (inactive)
[52]
  GI50: 31.1 µM (inactive)
[53]
  GI50: 25.3 µM (inactive)
[54]
  GI50: 23.7 µM (inactive)
[55]
  GI50: 12.9 µM (inactive)
[56]
  GI50: 21.1 µM (inactive)
